This note sets out measurements from patent US20230348454A1, “COMPOUNDS AS MODULATORS OF BIS-PHOSPHOGLYCERATE MUTASE FOR THE TREATMENT OF SICKLE CELL DISEASE” (Genzyme Corporation, priority 2020, published 2023).

This assay has as its target T1, hBPGM (Homo sapiens, UniProt P07738).
T1 sequence (P07738 1-259): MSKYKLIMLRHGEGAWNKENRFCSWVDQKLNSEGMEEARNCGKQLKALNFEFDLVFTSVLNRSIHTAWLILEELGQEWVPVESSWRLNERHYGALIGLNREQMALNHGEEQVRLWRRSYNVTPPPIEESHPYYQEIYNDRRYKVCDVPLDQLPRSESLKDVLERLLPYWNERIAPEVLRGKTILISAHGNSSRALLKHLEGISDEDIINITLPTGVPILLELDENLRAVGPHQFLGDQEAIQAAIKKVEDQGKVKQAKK
Description: BPGM synthase assay. In kind it is biochemical. The note with it: Table 6; read-out: huBPGM: synthase Enzyme IC50. Here is the method:
The following materials were used in this assay: deionized water; Bisphosphoglycerate mutase (BPGM; Standard Buffer: 50 mM Tris, 0.01% Tween 20, pH 7.4); BPGM Reaction Buffer (50 mM Tris, 0.01% Tween 20, 3.23 mM KH2PO4, pH 7.4); dithiothreitol (DTT; Stock solution: 100 mM in Standard Buffer); 384-Well Black Assay Plate (Corning, P/N 3575); DMSO; BPGM Stock Solution (500 nM in BPGM Standard Buffer); Glyceraldehyde 3-phosphate dehydrogenase (GAPDH; Stock Solution: 40 U/mL in 20 mM Tris-HCL Buffer with 20% Glycerol, 1 mM EDTA, 1 mM DTT); Glyceraldehyde 3-phosphate (GAP; Stock Solution: 20 mM in BPGM Standard Buffer); 3-PG Stock Solution (500 μM in BPGM Standard Buffer); Nicotinamide adenine dinucleotide (NAD; Stock Solution: 50 mM in BPGM Standard Buffer); Koningic Acid (1 mM Stock in DMSO); Resazurin Stock Solution (10 mM in DMSO); Diaphorase Stock Solution (40 U/mL in BPGM Standard Buffer); DTT Reaction Buffer (1 mM DTT in BPGM Reaction Buffer); Enzyme Solution (5 nM BPGM, 0.4 U/mL GAPDH in DTT Reaction Buffer); GAPDH Solution (0.4 U/mL GAPDH in DTT Reaction Buffer); Substrate Solution (2 mM NAD, 20 μM 3PG, 800 μM GAP in DTT Reaction Buffer); and Resazurin Solution (5 U/mL Diaphorase, 500 μM Resazurin in BPGM Standard Buffer).
To the assay plate was added Enzyme Solution (20 uL) to columns 2-22 and 24 of the assay plate. To columns 1 and 23 was added GAPDH Solution (20 uL). A separate compound plate was prepared at the desired concentrations and all wells were normalized with 5% DMSO. The compound plate was incubated for 30 minutes at RT. Next, the substrate solution (20 μL) was dispensed to all reaction wells and the plate was incubated for 60 minutes at RT. Koningic acid (1 μL) was added and the plate was incubated for 10 minutes at RT. During this time period, the NADH fluorescence was read at ex: 360/em: 460. Next, Resazurin Solution (10 μL) was added to all reaction wells and the plate was incubated for 30 minutes at RT. The resorufin fluorescence was then read at ex:544/em:590.

Structures are written as SMILES.

As usually defined, the IC50 is the concentration that inhibits the measured activity by half. With `Cc1nc(CNCC(=O)N(C)C)sc1-c1cccc(-c2cc(F)c3nn[nH]c3c2F)n1` [Example 53], the half-inhibitory concentration (IC50) is 890 nM.

`CC(=O)NCc1nc(C)c(-c2cccc(-c3cc(F)c4nn[nH]c4c3F)n2)s1` [Example 54]: the IC50 amounted to 91 nM. Consider `Cc1nc(COc2ccccn2)sc1-c1csc(-c2cc(F)c(F)c(O)c2F)n1` [Example 55], for which the IC50 was 220 nM. In the case of `Cc1nc(CNCC(C)(C)C)sc1-c1cccc(-c2cc(F)c3nn[nH]c3c2F)n1` [Example 56] it was 260 nM. As for `Cc1nc(COc2ncccn2)sc1-c1ccnc(-c2cc(F)c(O)c(F)c2F)c1` [Example 57], the half-maximal inhibitory concentration (IC50) came to 290 nM. As to `Cc1nc(COc2ncccn2)sc1-c1ccnc(-c2cc(F)c(O)c(C#N)c2)c1` [Example 58], the IC50 was found to be 1900 nM. In the case of `Cc1nc(COC(=O)N2CC(O)C2)sc1-c1cccc(-c2cc(F)c3nn[nH]c3c2F)n1` [Example 59] it was 20 nM. On to `Cc1nc(COC(C)C(=O)N(C)C)sc1-c1cccc(-c2cc(F)c3nn[nH]c3c2F)n1` (stereo not drawn) [Example 60], for which the IC50 was found to be 55 nM. As for `Cc1nc(CNC(=O)N2CCC(O)C2)sc1-c1cccc(-c2cc(F)c3nn[nH]c3c2F)n1` (stereo not drawn) [Example 61], the half-maximal inhibitory concentration (IC50) worked out at 220 nM. As to `Cc1nc(COC(=O)N2CCC(O)C2)sc1-c1cccc(-c2cc(F)c3nn[nH]c3c2F)c1` (stereo not drawn) [Example 62], the IC50 was determined as 350 nM. For `CNCc1nc(C)c(-c2cccc(-c3cc(F)c4nn[nH]c4c3F)n2)s1` [Example 63], the IC50 came out at 1400 nM.

Take `Cc1nc(COCC(=O)N(C)C)sc1-c1cccc(-c2cc(F)c3nn[nH]c3c2F)n1` [Example 64]: the IC50 is 43 nM.

As for `CC(=O)N(C)Cc1nc(C)c(-c2cccc(-c3cc(F)c4nn[nH]c4c3F)n2)s1` [Example 65], the IC50 worked out at 280 nM. As to `Cc1nc(COc2ncccn2)sc1-c1csc(-c2cc(F)c3[nH]nnc3c2F)n1` [Example 66], the IC50 was determined as 16 nM. As for `COC(=O)NCc1nc(C)c(-c2csc(-c3cc(F)c4[nH]nnc4c3F)n2)s1` [Example 67], the IC50 is 50 nM. On to `COCc1nc(C)c(-c2cccc(-c3cc(F)c4nn[nH]c4c3F)n2)s1` [Example 68], for which the concentration for half-maximal inhibition (IC50) is 200 nM. In the case of `Cc1nc(COc2ncccn2)sc1-c1ccnc(-c2cc(F)c(O)c(C#N)c2)n1` [Example 69] it was 79 nM; in that of `Cc1nc(COc2ncccn2)sc1-c1csc(-c2cc(F)c(O)c(F)c2F)n1` [Example 70], 200 nM.

As to `Cc1nc(COc2ncccn2)sc1-c1nc(-c2cc(O)c(C#N)c(F)c2)cs1` [Example 71], the IC50 came out at 300 nM. As to `Cc1nc(COc2ncccn2)sc1-c1nc(-c2cc(F)c(O)c(C#N)c2)cs1` [Example 72], the IC50 turned out to be 510 nM.

For `Cc1nc(COc2ncccn2)sc1-c1cccc(-c2nnn[nH]2)n1` [Example 73], the IC50 is above 25000 nM.

As for `Cc1nc(COc2ncccn2)sc1-c1cccc(-c2cc(O)c(C#N)c(F)c2)n1` [Example 74], the IC50 is 290 nM.

For the compound `Cc1nc(COC(=O)N2CCC(O)C2)sc1-c1csc(-c2cc(F)c3[nH]nnc3c2F)n1` (stereo not drawn) [Example 75], the IC50 was 440 nM. With `Cc1nc(COCC(=O)N2CCC(O)C2)sc1-c1cccc(-c2cc(F)c3nn[nH]c3c2F)n1` (stereo not drawn) [Example 76], the IC50 was determined as 1100 nM. As for `Cc1nc(COc2cccnn2)sc1-c1nc(-c2cc(F)c(O)c(F)c2F)cs1` [Example 77], the IC50 stood at 1300 nM. With `Cc1nc(COCC(=O)N2CCC(O)C2)sc1-c1csc(-c2cc(F)c3[nH]nnc3c2F)n1` (stereo not drawn) [Example 78] the figure was 1500 nM. In the case of `Cc1nc(COC(=O)N2CCC(O)C2)sc1-c1csc(-c2cc(F)c(O)c(F)c2F)n1` (stereo not drawn) [Example 79] it was 2400 nM. With `Cc1nc(CNC(=O)N2CCC(O)C2)sc1-c1csc(-c2cc(F)c3[nH]nnc3c2F)n1` (stereo not drawn) [Example 80], the IC50 turned out to be 2800 nM. Turning to `Cc1nc(COc2ccccn2)sc1-c1csc(-c2cc(F)c(OP(=O)(O)O)c(F)c2F)n1` [Example 81], the IC50 worked out at 3000 nM. Turning to `Cc1nc(COc2ccccn2)sc1-c1csc(-c2cc(F)c3[nH]nnc3c2F)n1` [Example 82], the IC50 was determined as 3600 nM. Take `Cc1nc(CNC(=O)C2CN(C)C2)sc1-c1csc(-c2cc(F)c(O)c(F)c2F)n1` [Example 83]: the IC50 was above 25000 nM. Take `Cc1nc(CNc2ncc(C(F)(F)F)cn2)sc1-c1csc(-c2cc(F)c(O)c(F)c2F)n1` [Example 84]: the half-maximal inhibitory concentration (IC50) was above 25000 nM.

For `Cc1nc(COC(=O)N2CCC(O)C2)sc1-c1cccc(-c2cc(F)c3nn[nH]c3c2F)n1` (stereo not drawn) [Example 85], the IC50 is 21 nM. With `Cc1nc(C)c(-c2csc(-c3cc(F)c4[nH]nnc4c3F)n2)s1` [Example 86] the figure was 140 nM; with `Cc1nc(CO)sc1-c1csc(-c2cc(F)c3[nH]nnc3c2F)n1` [Example 87], 380 nM; with `Cc1nc(COc2cccnn2)sc1-c1cccc(-c2cc(F)c3nn[nH]c3c2F)n1` [Example 88], 24 nM. Take `Cc1nc(CNc2cccnn2)sc1-c1csc(-c2cc(F)c(O)c(F)c2F)n1` [Example 89]: the IC50 is 280 nM. In the case of `Cc1nc(C)c(-c2cccc(-c3cc(F)c4nn[nH]c4c3F)n2)s1` [Example 90] it was 340 nM. For the compound `Cc1nc(CO)sc1-c1cccc(-c2cc(F)c3nn[nH]c3c2F)n1` [Example 91], the IC50 came to 640 nM. `Cc1nc(CNC(=O)N2CCC(O)C2)sc1-c1csc(-c2cc(F)c(O)c(F)c2F)n1` (stereo not drawn) [Example 92]: the IC50 is 2300 nM. `Cc1nc(CNC(=O)C2CCN(C)CC2)sc1-c1csc(-c2cc(F)c(O)c(F)c2F)n1` [Example 93]: the half-maximal inhibitory concentration (IC50) stood at 9000 nM. In the case of `Cc1nc(COCC(=O)C2CCNCC2)sc1-c1csc(-c2cc(F)c(O)c(F)c2F)n1` [Example 94] it was above 25000 nM; in that of `Cc1nc(COc2ncccn2)sc1-c1cccc(-c2ccc(C#N)c(O)c2F)n1` [Example 105], 220 nM; in that of `Cc1nc(CNC(=O)c2ccn(C)n2)sc1-c1csc(-c2cc(F)c(O)c(F)c2F)n1` [Example 106], 330 nM. For the compound `Cc1nc(CNC(=O)N(C)C)sc1-c1csc(-c2cc(F)c3[nH]nnc3c2)n1` [Example 107], the IC50 is 3200 nM. In the case of `Cc1nc(CNC(=O)N2CCN(C)CC2)sc1-c1csc(-c2cc(F)c(O)c(F)c2F)n1` [Example 108] it was 14000 nM; in that of `Cc1nc(COC(=O)N(C)C)sc1-c1csc(-c2cc(F)c3[nH]nnc3c2)n1` [Example 109], 160 nM. With `Cc1nc(COc2ccccn2)sc1-c1cccc(-c2cc(F)c3nn[nH]c3c2F)n1` [Example 110] the figure was 160 nM; with `Cc1nc(CNC(=O)C(C)(C)C)sc1-c1csc(-c2cc(F)c(O)c(F)c2F)n1` [Example 111], 570 nM; with `Cc1nc(CNC(=O)N(C)C)sc1-c1csc(-c2cc(F)c(O)c(F)c2F)n1` [Example 112], 650 nM.

In the case of `Cc1nc(CNC(=O)c2cnn(C)c2)sc1-c1csc(-c2cc(F)c(O)c(F)c2F)n1` [Example 113], the IC50 turned out to be 530 nM. As to `Cc1nc(C)c(-c2csc(-c3cc(F)c4[nH]nnc4c3)n2)s1` [Example 114], the half-maximal inhibitory concentration (IC50) is 1200 nM. With `Cc1nc(COCC(=O)N2CCNCC2)sc1-c1csc(-c2cc(F)c(O)c(F)c2F)n1` [Example 115], the IC50 came to 4400 nM. Take `Cc1nc(CO)sc1-c1csc(-c2cc(F)c(O)c(F)c2F)n1` [Example 116]: the IC50 was found to be 6500 nM. `Cc1nc(COc2ncccn2)sc1-c1cccc(-c2ccc3[nH]c(=O)oc3c2)n1` [Example 117]: the IC50 was above 25000 nM. Regarding `Cc1nc(COc2nccc(C(=O)O)n2)sc1-c1cccc(-c2cc(F)c3nn[nH]c3c2)n1` [Example 118], the IC50 is 28 nM. In the case of `Cc1nc(C)c(-c2csc(-c3cc(F)c(O)c(F)c3F)n2)s1` [Example 119] it was 2900 nM; in that of `Cc1nc(COc2ccccn2)sc1-c1cccc(-c2cc(O)c(C#N)c(F)c2)n1` [Example 120], 1500 nM; in that of `Cc1nc(COc2ccccn2)sc1-c1cccc(-c2cc(F)c(O)c(C#N)c2)n1` [Example 121], 3300 nM. Consider `COC(=O)NCc1nc(C)c(-c2cccc(-c3cc(F)c4nn[nH]c4c3F)n2)s1` [Example 122], for which the 50% inhibitory concentration (IC50) was found to be 33 nM.
